Holding throughout (experiment): DTP human tumour cell line panel, 48 h
The test system of assay [1] is HOP-62.
Assay [2] concerns NCI-H522.
Assay [3] concerns SR.
Assay [4] deals with UACC-257.
Assay [5] concerns M14.
Assay [6] deals with OVCAR-3.
Assay [7] concerns LOX IMVI.
Assay [8] concerns SW-620.
Assay [9] has as its system NCI-H23.
Assay [10] concerns HOP-92.
For assay [11], the system named is CAKI-1.
Assay [12] has as its system SN12C.
Assay [13] concerns SF-295.
The test system of assay [14] is HL-60.
Assay [15] has as its system U-251.
The subject of assay [16] is NCI-H460.
The test system of assay [17] is EKVX.
Assay [18] concerns SNB-19.

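48-hour exposure; five concentrations; linearly interpolated endpoints. GI50 marks 50% less growth.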 Activity calls are given as the source filed them. Cut-off read from the data, not from the text of the source: active = GI50 up to about 1.1 µM and inactive = higher. Bounds are passed on as bounds.

`COc1ccc(/C=N/NC(=O)NCCNCCO)cc1`: the GI50 in assay [1], in assay [2], in [3], in assay [4], in [5] and in [6] was > 100 µM (inactive) throughout. The GI50 in [7], in assay [8], in assay [9], in [10], in assay [11] and in assay [12] was > 100 µM (inactive) throughout. The GI50 in assay [13], in assay [14], in assay [15] and in assay [16] was > 100 µM (inactive) throughout.

For the compound `Cc1nc2c(n1CC(C)(C)C)C(=O)c1ccccc1C2=O`, the GI50 – broadly, the concentration that inhibits growth by half – in assay [1] was > 100 µM (inactive); in [2] it was 92.7 µM (inactive); in [3] it was 97.7 µM (inactive); in [4] it was 80.7 µM (inactive); in assay [5], > 100 µM (inactive); in [6], 66.7 µM (inactive). Besides, the GI50 in [7] is 55.6 µM (inactive); in assay [8], > 100 µM (inactive); in [9], > 100 µM (inactive); in [10], 16.7 µM (inactive); in assay [12], > 100 µM (inactive); in [17] it was > 100 µM (inactive). Moreover, the GI50 in [13] is > 100 µM (inactive); in assay [18], > 100 µM (inactive); in assay [14], 36.1 µM (inactive); in assay [15] it was > 100 µM (inactive); in assay [16] it was 58.6 µM (inactive).

`Cc1nc2nnc(C)n2c2c1C(=O)Nc1ccccc1N2`: the GI50 in assay [1], in assay [2], in assay [3], in assay [4], in [5] and in assay [6] was > 100 µM (inactive) each time. Also, the GI50 in [7], in [8], in assay [9], in assay [10], in [12] and in assay [17] was > 100 µM (inactive) each time. Besides, the GI50 in assay [13], in assay [18], in assay [14], in assay [15] and in assay [16] was > 100 µM (inactive) each time.

Regarding `N#CC1=C(N)Oc2c(ccc3cccnc23)C1c1ccccc1` (stereo not drawn), the GI50 is 1.16 µM (inactive) in assay [1]; 0.333 µM (active) in assay [3]; 3.61 µM (inactive) in [4]; 0.57 µM (active) in assay [5]; 0.608 µM (active) in assay [6]; 1.34 µM (inactive) in assay [7]. The GI50 is 0.51 µM (active) in assay [8]; 1.31 µM (inactive) in assay [9]; 9.35 µM (inactive) in assay [10]; 0.619 µM (active) in assay [11]; 3.3 µM (inactive) in assay [12]; 4.78 µM (inactive) in assay [17]. Moreover, the GI50 in [13] is 0.515 µM (active); in assay [18] it was 5.3 µM (inactive); in assay [14] it was 0.267 µM (active); in [15], 0.908 µM (active); in [16], 0.738 µM (active).

On to `CN(C)c1ccc(/C=C2\C=Cc3ccccc32)cc1`, for which the GI50 is > 100 µM (inactive) in [1]; 17.3 µM (inactive) in [2]; 32.4 µM (inactive) in assay [3]; 29.2 µM (inactive) in [5]; 73.6 µM (inactive) in assay [6]; 47.2 µM (inactive) in assay [7]. In addition, the GI50 in assay [8] is 38.1 µM (inactive); in [9], 35.6 µM (inactive); in [10] it was 44.5 µM (inactive); in assay [11], 78 µM (inactive); in assay [12], 39.9 µM (inactive); in assay [13], 34.3 µM (inactive). In addition, the GI50 is 59.2 µM (inactive) in assay [18], 27.9 µM (inactive) in assay [14], 55 µM (inactive) in assay [15] and 39.4 µM (inactive) in assay [16].

Values taken from ChEMBL document CHEMBL1201862, “PubChem BioAssay data set” (2004).
